Data: patent US20190000789A1, “COMPOSITION AND METHOD FOR TREATING INFECTIONS CAUSED BY VANCOMYCIN-RESISTANT INFECTIOUS AGENTS IN A SUBJECT” (priority 2015, published 2019)
Read-outs that look alike come from different tables or passages of the source.

Key:
[1] = system: vanA-positive Enterococcus faecium clinical isolate vanA10; test: MIC of vancomycin by serial dilution in 96-well plates with or without D-Ala; type: cell-based; details: for MIC: Enterococcus faecium
Experimental: (§1) Having established the important role of D-Ala in enhancing the efficacy of vancomycin against vancomycin-resistant S. coelicolor cells, next, its effect on the resistance of clinical isolates of Enterococcus faecium, which were vanA-positive strains, was assessed. MIC values were calculated by testing a serial dilution of vancomycin in the presence or absence of D-Ala in triplicate (Table 3).
(§2) The MIC was determined by measurement of the OD600 or by visual assessment, following the Clinical Laboratory and Standards Institute (CLSI) guidelines. […] This value compares to intermediate instead of total resistance. The strains were serially diluted in a 96-well plate and growth was assayed at OD600. The steps down refer to CSLI guidelines for clinical MIC measurements.
(§3) Five vanA-positive Enterococcus faecium strains were collected in 2011 and 2014 from patients in the Erasmus University Medical Centre, Rotterdam, The Netherlands. Presence of the vanA gene was confirmed by real-time PCR with the LIGHTCYCLER® 480 instrument (Roche Diagnostics, Almere, The Netherlands) with the primers vanA F1 and vanA R1, and the vanA probe. The resistance profile of these isolates was determined as MIC values using the VITEK II (BioMerieux) system AST-P586. To determine the MIC of vancomycin against E. faecium, cells were grown overnight on Trypticase Soy Agar (TSA) blood agar plates (Becton Dickinson, Breda, The Netherlands) and suspended in 0.9% NaCl until OD600 0.5 (±0.05). Of this suspension, 10 μl was dispensed into wells of sterile flat-bottom 96-well polystyrene tissue culture plates (Greiner Bio-One, Alphen aan Den Rijn, The Netherlands) containing serial dilutions of vancomycin in 190 μl of a 1:1 mixture of Fetal Bovine Serum (FBS) (Gibco, Bleiswijk, The Netherlands) and Iscove's Modified Dulbecco's Medium (IMDM) (without phenolred, Gibco, Bleiswijk, The Netherlands), and in the presence or absence of 50 mM D-alanine (Alfa Aesar, Ward Hill, Mass., USA). Plates were incubated for 18-24 hours at 37° C. and MIC values determined visually following the CLSI guidelines, or by spectrophotometer at 600 nm.

[2] = system: vanA-positive Enterococcus faecium clinical isolate vanA4; test: as above; type: cell-based; details: for MIC: Enterococcus faecium
Experimental: as §1, §2, §3

[3] = system: vanA-positive Enterococcus faecium clinical isolate vanA3; test: as above; type: cell-based; details: for MIC: Enterococcus faecium
Experimental: as §1, §2, §3

[4] = system: vanA-positive Enterococcus faecium clinical isolate vanA2; test: as above; type: cell-based; details: for MIC: Enterococcus faecium
Experimental: as §1, §2, §3

[5] = system: vanA-positive Enterococcus faecium clinical isolate vanA1; test: as above; type: cell-based; details: for MIC: Enterococcus faecium
Experimental: as §1, §2, §3

[6] = system: S. coelicolor LAG2 (ddl suppressor mutant); test: MIC of vancomycin on MM agar plates with added D-Ala or L-Ala; type: cell-based, Streptomyces coelicolor; details: Streptomyces coelicolor
Experimental: VanS is the sensory kinase of a two-component system formed with VanR, and it has been shown previously that certain mutations in vanS will constitutively upregulate the vancomycin resistance cluster, explaining the viability of strain LAG2 in the absence of vancomycin.
Escherichia coli strains JM109 (Sambrook et al., 1989) and ET12567 (Kieser et al., 2000) were used for routine cloning procedures and for extracting non-methylated DNA, respectively. Cells of E. coli were grown in Luria-Berani broth (LB) at 37° C. Streptomyces coelicolor A3(2) M145 was the parent of all mutants described in this work. All media and routine Streptomyces techniques were carried out as described (Kieser et al., 2000). SFM (soy flour mannitol) agar plates were used for propagating S. coelicolor strains and to prepare spore suspensions. For liquid-grown cultures, S. coelicolor mycelia were grown in normal minimal media with phosphate (NMMP) supplemented with 1% (w/v) mannitol as the sole carbon source. The MIC of vancomycin against S. coelicolor M145 and its mutant derivatives were determined by growth on minimal media (MM) agar plates supplemented with 1% mannitol as the sole carbon source, and 0, 2, 4, 8, 16, 32, 64, 128, 256 or 512 μg/ml vancomycin, in combination with 0, 1, 5, 10 or 50 mM of D-Ala or L-Ala. The vanX deletion mutants have been tested with 1, 5, 10, 50 and 100 μM D-Ala and L-Ala.

[7] = system: clinical isolates of vanA-positive Enterococcus faecium; test: MIC of vancomycin by serial dilution, isolates not named individually; type: cell-based; details: for MIC: Enterococcus faecium
Experimental: as §1, §2, §3

CN[C@H](CC(C)C)C(=O)N[C@H]1C(=O)N[C@@H](CC(N)=O)C(=O)N[C@H]2C(=O)N[C@H]3C(=O)N[C@H](C(=O)N[C@H](C(=O)O)c4cc(O)cc(O)c4-c4cc3ccc4O)[C@H](O)c3ccc(c(Cl)c3)Oc3cc2cc(c3O[C@@H]2O[C@H](CO)[C@@H](O)[C@H](O)[C@H]2O[C@H]2C[C@](C)(N)[C@H](O)[C@H](C)O2)Oc2ccc(cc2Cl)[C@H]1O [vancomycin] was tested, and the MIC ([1]; vanA10, 50 mM D-Ala, read-out: MIC with 50 mM D-Ala) was 16 µg/mL, the MIC ([1]; vanA10, read-out: MIC without D-Ala) was 2050 µg/mL and the “reduction of MIC” value ([1]; vanA10, 50 mM D-Ala, approximation based on 2-fold dilution steps) was ~128. For the same molecule, the MIC ([2]; vanA4, 50 mM D-Ala, read-out: MIC with 50 mM D-Ala) was 128 µg/mL, the MIC ([2]; vanA4, read-out: MIC without D-Ala) was 4100 µg/mL and the “reduction of MIC” value ([2]; vanA4, 50 mM D-Ala, approximation based on 2-fold dilution steps) was ~32. For the same molecule, the MIC ([3]; vanA3, 50 mM D-Ala, read-out: MIC with 50 mM D-Ala) was 128 µg/mL, the MIC ([3]; vanA3, read-out: MIC without D-Ala) was 4100 µg/mL and the “reduction of MIC” value ([3]; vanA3, 50 mM D-Ala, approximation based on 2-fold dilution steps) was ~32. The MIC ([4]; vanA2, 50 mM D-Ala, read-out: MIC with 50 mM D-Ala) was 256 µg/mL, the MIC ([4]; vanA2, read-out: MIC without D-Ala) was 4100 µg/mL and the “reduction of MIC” value ([4]; vanA2, 50 mM D-Ala, approximation based on 2-fold dilution steps) was ~16. For the same molecule, the MIC ([5]; vanA1, 50 mM D-Ala, read-out: MIC with 50 mM D-Ala) was 256 µg/mL, the MIC ([5]; vanA1, read-out: MIC without D-Ala) was 4100 µg/mL and the “reduction of MIC” value ([5]; vanA1, 50 mM D-Ala, approximation based on 2-fold dilution steps) was ~16. It also gave an MIC ([6]; LAG2, 0 mM D-Ala) of 128 µg/mL, an MIC ([6]; LAG2, 5 mM D-Ala) of 64 µg/mL and an MIC ([6]; LAG2, 10 mM D-Ala) of 32 µg/mL. It also gave an MIC ([6]; LAG2, 50 mM D-Ala) of 4 µg/mL, an MIC ([7]; worst cases, 50 mM D-Ala) of 256 µg/mL and an MIC ([7]; worst cases, without D-Ala) of 4100 µg/mL. For the same molecule, the “reduction of MIC of vancomycin in dilution steps” value ([7]; all clinical isolates, 50 mM D-Ala) was 4-7 dilution steps and the MIC of vancomycin ([7]; worst cases, 50 mM D-Ala) was 128 µg/mL.
